Assay results from ChEMBL document CHEMBL1145599, “A novel pyrene-guanidiniocarbonyl-pyrrole cation efficiently differentiates between ds-DNA and ds-RNA by two independent, sensitive spectroscopic methods” (Bioorg Med Chem Lett, 2008).

How the values were obtained:
Nucleic Acid [1] = assay: Binding affinity to polyG-polyC double stranded RNA by thermal denaturation assay; type: nucleic-acid assay
DNA = assay: Binding affinity to calf thymus DNA by thermal denaturation assay; type: nucleic-acid assay; settings: Bos taurus
[2] = Binding affinity to polydA-polydT DNA by thermal denaturation assay
Nucleic Acid [3] = assay: Binding affinity to polyA-polyU double stranded RNA by thermal denaturation assay; type: nucleic-acid assay

SMILES: N=C(N)NC(=O)c1ccc(C(=O)NCCCCNC(=O)c2ccc3ccc4cccc5ccc2c3c45)[nH]1
- log K (Nucleic Acid [1]): 5.1
- log K (DNA): 5.1
- ΔTm (DNA): 7.3 °C
- log K [2]: 5.1
- log K (Nucleic Acid [3]): 5.1
- ΔTm (Nucleic Acid [3]): -1.5 °C
